Patent US11584725B2, “Pyrazinoic acid conjugates and hybrid conjugates” (Augusta University Research Institute, Inc., priority 2018, dated 2023)
Converted amounts (≈) assume the structure as drawn. “And” between values parts separate entries of the source, which are not always exact repeats. Equal values may be shown once. Read-outs that look alike come from different tables or passages of the source.

What was measured:
Assay type in all cases: cell-based
Mycobacterium fortuitum = assay: Anti-mycobacterial MIC; conditions: for MIC: Mycolicibacterium fortuitum
Mycobacterium marinum = assay: Anti-mycobacterial MIC; conditions: read-out: Minimum inhibitory concentration (MIC), observed
Mycobacterium bovis = assay: microbe, parasite or virus in culture; conditions: for MIC lower than that of the standard reference (INH): Mycobacterium bovis, MIC vs INH; for MIC: Mycobacterium tuberculosis variant bovis, read-out: Minimum inhibitory concentration (MIC)
Enterococcus faecalis = assay: Antibacterial MIC, aerobic bacteria, standard technique; conditions: read-out: Minimum inhibitory concentration (MIC)
Text: (§1) Antibacterial properties were investigated for the synthesized compounds against a variety of Gram-positive (Staphylococcus aureus, Enterococcus faecalis) and Gram-negative (Klebsiella pneumonia, Proteus vulgaris, Pseudomonas aeruginosa) bacteria utilizing the standard technique.

Klebsiella pneumonia = assay: as above; conditions: Klebsiella pneumoniae, read-out: Minimum inhibitory concentration (MIC)
Text: as §1

Proteus vulgaris = assay: as above; conditions: read-out: Minimum inhibitory concentration (MIC)
Text: as §1

Staphylococcus aureus = assay: as above; conditions: read-out: Minimum inhibitory concentration (MIC)
Text: as §1

[1] = read-out: Minimum inhibitory concentration (MIC)
[2] = read-out: Minimum inhibitory concentration (MIC), observed

Row | Compound | MIC (Mycobacterium fortuitum; [1]) [mg/mL] | MIC (Mycobacterium marinum) [mM] | further results
1 | CC(C)[C@H](NC(=O)c1cnccn1)C(=O)O | > 20 | – | –
2 | CSCC[C@H](NC(=O)c1cnccn1)C(=O)O | > 20 | – | –
3 | O=C(N[C@@H](Cc1ccccc1)C(=O)O)c1cnccn1 | > 20 | – | –
4 | O=C(NC(Cc1ccccc1)C(=O)O)c1cnccn1 (stereo not shown) | > 20 | – | –
5 | O=C(N[C@@H](Cc1c[nH]c2ccccc12)C(=O)O)c1cnccn1 | > 20 | – | –
6 | O=C(NNC(=O)C(Cc1ccccc1)NC(=O)c1cnccn1)c1ccncc1 (stereo not shown) | 10 | – | –
7 | O=C(NNC(=O)C(Cc1ccccc1)NC(=O)c1cnccn1)c1ccncc1 (racemic) [PZA-DL-Phe-INH] | – | – | Potency relative to the standard reference (INH) (Mycobacterium fortuitum; MIC vs INH): about 5.6 folds
8 | NNC(=O)c1ccncc1 [INH, isoniazide, reference compound] | – | 72.9 (≈ 10 mg/mL) | –
9 | O=C(NNC(=O)c1ccncc1)c1ccncc1 [Iso-INH] | – | 82.6 (≈ 20 mg/mL) | MIC lower than that of the standard reference (INH) (Mycobacterium bovis): about 1.8 folds; MIC (Mycobacterium fortuitum; [2]): 82.6 mM
10 | NC(=O)c1cnccn1 [PZA, Pyrazinamide, reference compound] | – | 81.2 (≈ 10 mg/mL) | MIC (Mycobacterium fortuitum; [2]): 81.2 mM
11 | O=C(NNC(=O)c1cnccn1)c1ccncc1 [PZA-INH] | – | 41.1 (≈ 10 mg/mL) | MIC lower than that of the standard reference (INH) (Mycobacterium bovis): about 1.8 folds; MIC (Mycobacterium fortuitum; [2]): 41.1 mM
12 | CCC(C)C(NC(=O)c1cnccn1)C(=O)NNC(=O)c1ccncc1 (stereo not shown) [PZA-Ile-INH] | – | 56.1 (≈ 20 mg/mL) | MIC (Mycobacterium fortuitum; [2]): 56.1 mM
13 | CC(C)C[C@H](NC(=O)c1cnccn1)C(=O)NNC(=O)c1ccncc1 [PZA-Leu-INH] | – | 56.1 (≈ 20 mg/mL) | MIC (Mycobacterium fortuitum; [2]): 56.1 mM
14 | CC(C)C[C@H](NC(=O)c1cnccn1)C(=O)O [PZA-Leu-OH] | – | 84.3 (≈ 20 mg/mL) | MIC (Mycobacterium fortuitum; [2]): 84.3 mM
15 | CSCC[C@H](NC(=O)c1cnccn1)C(=O)NNC(=O)c1ccncc1 [PZA-Met-INH] | – | 26.7 (≈ 10 mg/mL) | MIC (Mycobacterium fortuitum; [2]): 53.4 mM
16 | O=C(NNC(=O)[C@H](Cc1ccccc1)NC(=O)c1cnccn1)c1ccncc1 [PZA-Phe-INH] | – | 51.2 (≈ 20 mg/mL) | MIC (Mycobacterium fortuitum; [2]): 51.2 mM
17 | O=C(NNC(=O)[C@H](Cc1c[nH]c2ccccc12)NC(=O)c1cnccn1)c1ccncc1 [PZA-Trp-INH] | – | 46.6 (≈ 20 mg/mL) | MIC (Mycobacterium fortuitum; [2]): 46.6 mM

Row | Compound | MIC (Mycobacterium fortuitum; [1]) [mg/mL] | MIC (Mycobacterium marinum) [mM] | further results
18 | CC(C)[C@H](NC(=O)c1cnccn1)C(=O)NNC(=O)c1ccncc1 [PZA-Val-INH] | – | 58.4 (≈ 20 mg/mL) | MIC (Mycobacterium fortuitum; [2]): 58.4 mM
19 | CCC(C)C(NC(=O)c1cnccn1)C(=O)O (stereo not shown) [drawing 30] | – | – | MIC (Enterococcus faecalis): 0.03 µg/mL; MIC (Klebsiella pneumonia): 0.008 mg/mL (≈ 33.7 µM); MIC (Proteus vulgaris): 0.06 µg/mL (≈ 0.253 µM)
20 | CC(C)[C@H](NC(=O)c1cnccn1)C(=O)NNC(=O)c1ccncc1 [drawing 36] | – | – | MIC (Enterococcus faecalis): 0.00035 mM
21 | CCC(C)C(NC(=O)c1cnccn1)C(=O)NNC(=O)c1ccncc1 (stereo not shown) [drawing 37] | – | – | MIC (Enterococcus faecalis): 0.03 µg/mL and 0.08 µM; MIC (Klebsiella pneumonia): 0.008 mg/mL (≈ 22.4 µM); MIC (Proteus vulgaris): 0.06 µg/mL (≈ 0.168 µM)
22 | O=C(NNC(=O)[C@H](Cc1c[nH]c2ccccc12)NC(=O)c1cnccn1)c1ccncc1 [drawing 41] | – | – | MIC (Staphylococcus aureus): 3.73 mM (≈ 1.6 mg/mL)
23 | NC(=O)c1cnccn1 [drawing 44] | 10 | – | –
24 | NNC(=O)c1ccncc1 [drawing 45] | 20 | – | –
25 | CC(C)C[C@H](NC(=O)c1cnccn1)C(=O)O [drawing 46] | 20 | – | –
26 | CCC(C)C(NC(=O)c1cnccn1)C(=O)O (stereo not shown) [drawing 48] | > 20 | – | MIC (Mycobacterium bovis): > 20 mg/mL
27 | CC(C)C[C@H](NC(=O)c1cnccn1)C(=O)NNC(=O)c1ccncc1 [drawing 53] | 20 | – | –
28 | CC(C)[C@H](NC(=O)c1cnccn1)C(=O)NNC(=O)c1ccncc1 [drawing 54] | 20 | – | –
29 | CCC(C)C(NC(=O)c1cnccn1)C(=O)NNC(=O)c1ccncc1 (stereo not shown) [drawing 55] | 20 | – | MIC (Mycobacterium bovis): > 20 mg/mL
30 | CSCC[C@H](NC(=O)c1cnccn1)C(=O)NNC(=O)c1ccncc1 [drawing 56] | 20 | – | –
31 | O=C(NNC(=O)[C@H](Cc1ccccc1)NC(=O)c1cnccn1)c1ccncc1 [drawing 57] | 20 | – | –
32 | O=C(NNC(=O)[C@H](Cc1c[nH]c2ccccc12)NC(=O)c1cnccn1)c1ccncc1 [drawing 59] | 20 | – | –
33 | O=C(NNC(=O)c1cnccn1)c1ccncc1 [drawing 60] | 10 | – | –
34 | O=C(NNC(=O)c1ccncc1)c1ccncc1 [drawing 61] | 20 | – | –
